Read-outs that look alike come from different tables or passages of the source.
Legend:
MMP-14 = biological target: T1, MMP-14 (Homo sapiens, UniProt P50281); experiment: In-vitro fluorescence assay of MMP-14 activity; assay type: biochemical
T1 construct: 20 kDa; purchased Chemicon International, Inc. CC 1041
Procedure: A continuous assay was used in which the substrate is a synthetic peptide containing a fluorescent group (7-methoxycoumarin; Mca) which is quenched by energy transfer to a 2,4-dinitrophenyl group. […] The substrate used was Mca-PQGL-(3-[2,4-dinitrophenyl]-L-2,3-diaminopropionyl)-AR-OH (denoted as Wammp-5, custom synthesized by AnaSpec, Inc.). The assay buffer consisted of 50 mM Hepes (pH 7.4), 100 mM NaCl, 5 mM CaCl2, and 0.005% Brij-35. […] The enzymatic reactions were initiated by adding the substrate to a final concentration of 20 μM, and mixing 10 times with a pipette. The final DMSO concentration in the assay was 6.0%.
(§1) Plots of the inhibitor concentration vs. the percent inhibition were fit to the following equation: y=(a−d)/[1+(x/c)^b]+d, a general sigmoidal curve with Hill slope, a to d. x is the inhibitor concentration under test. y is the percent inhibition. a is the limiting response as x approaches zero. As x increases without bound, y tends toward its limit d. c is the inflection point (IC50) for the curve. That is, y is halfway between the lower and upper asymptotes when x=c. b is the slope factor or Hill coefficient.

MMP-12 = biological target: T2, MMP-12 (Homo sapiens, UniProt P39900); experiment: In vitro fluorescence assay of MMP-12 activity; assay type: biochemical; conditions: recombinant human MMP-12
T2 construct: made in house
Procedure: A continuous, assay was used in which the substrate is a synthetic peptide containing a fluorescent group (7-methoxycoumarin; Mca) which is quenched by energy transfer to a 2,4-dinitrophenyl group. […] The concentration of the substrate stock was spectrophotometrically determined using the extinction coefficient at 410 nm of 7500 M^−1cm^−1. The assay buffer (pH 7.4) consisted of 50 mM Hepes, 100 mM NaCl, 5 mM CaCl2, and 0.005% Brij-35. […] The plates were then incubated at room temperature for 30 minutes. The enzymatic reactions were initiated by adding substrate to a final concentration of 20 μM and they were mixed by pipetting up and down. The final DMSO concentration in the assay was 10% and the final, total assay volume was 200 μl.

MMP-13 = biological target: T3, MMP-13 (Homo sapiens, UniProt P45452); experiment: In-vitro fluorescence assay of MMP-13 activity; assay type: biochemical
T3 construct: made in house
Procedure: A continuous assay was used in which the substrate is a synthetic peptide containing a fluorescent group (7-methoxycoumarin; Mca) which is quenched by energy transfer to a 2,4-dinitrophenyl group. […] The substrate used was Mca-PQGL-(3-[2,4-dinitrophenyl]-L-2,3-diaminopropionyl)-AR-OH (denoted as Wammp-5, custom synthesized by AnaSpec, Inc.). The assay buffer consisted of 50 mM Hepes (pH 7.4), 100 mM NaCl, 5 mM CaCl2, and 0.005% Brij-35. Each well of black polystyrene 96-well plates contained a 200 μL reaction mixture consisting of assay buffer, purified MMP (final concentration of 0.5 nM, prepared by diluting with the assay buffer), and varied concentrations of inhibitor (prepared by serially diluting a given inhibitor in DMSO in 96-well polypropylene plate). […] The enzymatic reactions were initiated by adding the substrate to a final concentration of 20 μM, and mixing 10 times with a pipette. The final DMSO concentration in the assay was 6.0%.
as §1

MMP-2 = biological target: T4, MMP-2 (Homo sapiens, UniProt P08253); experiment: In-vitro fluorescence assay of MMP-2 activity; assay type: biochemical; conditions: recombinant human MMP-2; read-out: MMP-2 IC50
T4 construct: purchased Oncogene Research Products (Calbiochem) PF023
T4 sequence (P08253 110-660): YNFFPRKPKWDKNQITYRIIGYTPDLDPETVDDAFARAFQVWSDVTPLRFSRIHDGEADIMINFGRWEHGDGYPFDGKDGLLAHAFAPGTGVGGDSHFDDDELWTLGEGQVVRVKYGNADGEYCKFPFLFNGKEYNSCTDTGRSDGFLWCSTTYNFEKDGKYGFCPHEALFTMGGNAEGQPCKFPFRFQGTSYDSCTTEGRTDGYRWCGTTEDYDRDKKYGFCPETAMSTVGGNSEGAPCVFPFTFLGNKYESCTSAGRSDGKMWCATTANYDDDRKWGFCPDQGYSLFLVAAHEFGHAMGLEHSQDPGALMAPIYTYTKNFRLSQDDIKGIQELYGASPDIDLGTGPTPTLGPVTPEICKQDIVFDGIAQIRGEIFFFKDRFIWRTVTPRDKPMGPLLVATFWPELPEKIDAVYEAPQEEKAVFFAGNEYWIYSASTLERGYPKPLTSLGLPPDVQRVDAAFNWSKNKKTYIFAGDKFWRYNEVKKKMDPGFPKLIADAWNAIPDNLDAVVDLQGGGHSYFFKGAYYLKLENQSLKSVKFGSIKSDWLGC
Source text: A continuous assay was used in which the substrate is a synthetic peptide containing a fluorescent group (7-methoxycoumarin; Mca) which is quenched by energy transfer to a 2,4-dinitrophenyl group. […] The source of enzyme in the assay was the recombinant human MMP-2 (66 kDa) purchased from Oncogene Research Products (catalog number PF023 from Calbiochem). The substrate used was Mca-PQGL-(3-[2,4-dinitrophenyl]-L-2,3-diaminopropionyl)-AR-OH (denoted as Wammp-5, custom synthesized by AnaSpec, Inc.). The assay buffer consisted of 50 mM Hepes (pH 7.4), 100 mM NaCl, 5 mM CaCl2, and 0.005% Brij-35. […] The enzymatic reactions were initiated by adding the substrate to a final concentration of 20 μM, and mixing 10 times with a pipette. The final DMSO concentration in the assay was 6.0%.
as §1

MMP-1 = biological target: T5, MMP-1 (Homo sapiens, UniProt P03956)
T5 sequence (P03956 100-269 limits assumed): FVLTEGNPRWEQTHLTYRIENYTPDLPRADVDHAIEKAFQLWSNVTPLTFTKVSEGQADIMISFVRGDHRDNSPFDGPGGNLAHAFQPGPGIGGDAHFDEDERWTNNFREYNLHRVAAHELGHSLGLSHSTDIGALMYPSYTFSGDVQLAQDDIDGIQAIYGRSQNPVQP

[1] = recombinant human catalytic domain of MMP-13, read-out: MMP-13 IC50
[2] = recombinant human catalytic domain of MMP-14

T2 sequence (P39900 106-280 limits assumed): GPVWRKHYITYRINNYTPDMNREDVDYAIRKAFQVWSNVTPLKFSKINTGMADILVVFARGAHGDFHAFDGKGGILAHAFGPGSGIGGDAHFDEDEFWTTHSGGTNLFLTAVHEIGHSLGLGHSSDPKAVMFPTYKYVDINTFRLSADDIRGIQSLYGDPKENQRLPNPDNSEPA

Question: With `Cc1c(C(=O)Nc2ccc(-c3ccc(S(=O)(=O)N[C@H](C(=O)O)C(C)C)cc3)cc2)oc2cccc(C#N)c12` [Example 20, L-2-{4′-[(4-Cyano-3-methyl-benzofuran-2-carbonyl)-amino]-biphenyl-4-sulfonylamino}-3-methyl-butyric acid] as the compound, how does the IC50 (MMP-14) read?
Answer: 5.45 µM

Question: What about the IC50 (MMP-12) of the same compound?
Answer: 0.033 µM

Question: And the IC50 (MMP-13; [1])?
Answer: 0.0037 µM

Question: And the IC50 (MMP-2)?
Answer: 0.581 µM

Question: And the IC50 (MMP-1)?
Answer: 24 µM

Question: Which results are given for `Cc1c(C(=O)Nc2ccc(-c3ccc(S(=O)(=O)N[C@H](C(=O)O)C(C)C)cc3)cc2)oc2cccc(NS(C)(=O)=O)c12` [Example 36, L-2-{4′-[(4-Methanesulfonylamino-3-methyl-benzofuran-2-carbonyl)-amino]-biphenyl-4-sulfonylamino}-3-methyl-butyric acid]?
Answer: IC50 (MMP-12): 0.126 µM; IC50 (MMP-13; [1]): 0.011 µM; IC50 (MMP-2): 2.25 µM

Question: With `Cc1c(C(=O)Nc2ccc(-c3ccc(S(=O)(=O)N[C@H](C(=O)O)C(C)C)cc3)cc2)oc2cccc(C(N)=O)c12` [Example 46, L-2-{4′-[(4-Carbamoyl-3-methyl-benzofuran-2-carbonyl)-amino]-biphenyl-4-sulfonylamino}-3-methyl-butyric acid] as the compound, how does the IC50 (MMP-14; [2]) read?
Answer: 24.8 µM

Question: And the IC50 (MMP-12)?
Answer: 0.187 µM

Question: And the IC50 (MMP-13; [1])?
Answer: 0.014 µM

Question: What about the IC50 (MMP-2) of the same compound?
Answer: 1 µM

Question: What about the IC50 (MMP-1) of the same compound?
Answer: 20.2 µM

Question: `Cc1c(C(=O)Nc2ccc(-c3ccc(S(=O)(=O)N[C@H](C(=O)O)C(C)C)cc3)cc2)oc2cccc(NC(=O)C3CC3)c12` [Example 47, L-2-(4′-{[4-(Cyclopropanecarbonyl-amino)-3-methyl-benzofuran-2-carbonyl]-amino}-biphenyl-4-sulfonylamino)-3-methyl-butyric acid] was tested. Which IC50 (MMP-12) did it give?
Answer: 0.438 µM

Question: And the IC50 (MMP-13; [1])?
Answer: 0.032 µM

Question: What about the IC50 (MMP-2) of the same compound?
Answer: 4.29 µM

Question: `CC(=O)Nc1cccc2oc(C(=O)Nc3ccc(-c4ccc(S(=O)(=O)N[C@H](C(=O)O)C(C)C)cc4)cc3)c(C)c12` [Example 48, L-2-{4′-[(4-Acetylamino-3-methyl-benzofuran-2-carbonyl)-amino]-biphenyl-4-sulfonylamino}-3-methyl-butyric acid] was tested. Which IC50 (MMP-12) did it give?
Answer: 0.226 µM

Question: And the IC50 (MMP-13; [1])?
Answer: 0.025 µM

Question: What about the IC50 (MMP-2) of the same compound?
Answer: 3.81 µM

Question: Which IC50 (MMP-12) does the source give for `Cc1c(C(=O)Nc2ccc(-c3ccc(S(=O)(=O)N[C@H](C(=O)O)C(C)C)cc3)cc2)oc2cccc(OCC3CC3)c12` [Example 51, L-2-{4′-[(4-Cyclopropylmethoxy-3-methyl-benzofuran-2-carbonyl)-amino]-biphenyl-4-sulfonylamino}-3-methyl-butyric acid] here?
Answer: 0.187 µM

Question: And the IC50 (MMP-13; [1])?
Answer: 0.011 µM

Question: And the IC50 (MMP-2)?
Answer: 7.11 µM

Question: Which IC50 (MMP-12) does the source give for `Cc1nn(C)c2sc(C(=O)Nc3ccc(-c4ccc(S(=O)(=O)N[C@H](C(=O)O)C(C)C)cc4)cc3)cc12` [Example 80, (S)-2-{4′-[(1,3-Dimethyl-1H-thieno[2,3-c]pyrazole-5-carbonyl)-amino]-biphenyl-4-sulfonylamino}-3-methyl-butyric acid] here?
Answer: 0.051 µM

Question: And the IC50 (MMP-13; [1])?
Answer: 0.043 µM

Question: What about the IC50 (MMP-2) of the same compound?
Answer: 4.35 µM

Question: How did the IC50 (MMP-12) turn out when `COc1cccc2oc(C(=O)Nc3ccc(-c4ccc(S(=O)(=O)N[C@H](C(=O)O)C(C)C)cc4)cc3)c(C)c12` [Example 105, (S)-2-{4′-[(4-Methoxy-3-methyl-benzofuran-2-carbonyl)-amino]-biphenyl-4-sulfonylamino}-3-methyl-butyric acid] was run?
Answer: 0.06 µM

Question: And the IC50 (MMP-13; [1])?
Answer: 0.0095 µM

Question: What about the IC50 (MMP-2) of the same compound?
Answer: 1.05 µM

Question: `CCOc1cccc2oc(C(=O)Nc3ccc(-c4ccc(S(=O)(=O)N[C@H](C(=O)O)C(C)C)cc4)cc3)c(C)c12` [Example 106, (S)-2-{4′-[(4-ethoxy-3-methyl-benzofuran-2-carbonyl)-amino]-biphenyl-4-sulfonylamino}-3-methyl-butyric acid] was tested. Which IC50 (MMP-12) did it give?
Answer: 0.121 µM

Question: And the IC50 (MMP-13; [1])?
Answer: 0.0074 µM

Question: What about the IC50 (MMP-2) of the same compound?
Answer: 3.59 µM

Question: For `Cc1c(C(=O)Nc2ccc(-c3ccc(S(=O)(=O)N[C@H](C(=O)O)C(C)C)cc3)cc2)oc2cccc(-c3cccnc3)c12` [Example 111, (S)-3-methyl-2-{4′-[(3-methyl-4-pyridin-3-yl-benzofuran-2-carbonyl)-amino]-biphenyl-4-sulfonylamino}-butyric acid], which IC50 (MMP-14; [2]) is on record?
Answer: 7.31 µM

Question: What about the IC50 (MMP-12) of the same compound?
Answer: 0.084 µM

Question: And the IC50 (MMP-13; [1])?
Answer: 0.004 µM

Question: What about the IC50 (MMP-2) of the same compound?
Answer: 1.34 µM

Question: And the IC50 (MMP-1)?
Answer: 22 µM

Question: Which IC50 (MMP-14; [2]) does the source give for `COc1c(Cl)ccc2oc(C(=O)Nc3ccc(-c4ccc(S(=O)(=O)N[C@H](C(=O)O)C(C)C)cc4)cc3)c(C)c12` [Example 116, (S)-2-{4′-[(5-Chloro-4-methoxy-3-methyl-benzofuran-2-carbonyl)-amino]-biphenyl-4-sulfonylamino}-3-methyl-butyric acid] here?
Answer: 12.4 µM

Question: And the IC50 (MMP-12)?
Answer: 0.05 µM

Question: And the IC50 (MMP-13; [1])?
Answer: 0.0019 µM

Question: And the IC50 (MMP-2)?
Answer: 1.49 µM

Question: And the IC50 (MMP-1; read-out: MMP-1 IC50, recombinant human catalytic domain of MMP-1)?
Answer: 34.1 µM

Question: `Cc1ccc2oc(C(=O)Nc3ccc(-c4ccc(S(=O)(=O)N[C@H](C(=O)O)C(C)C)cc4)cc3)nc2c1` [Example 129, (S)-3-Methyl-2-{4′-[(5-methyl-benzooxazole-2-carbonyl)-amino]-biphenyl-4-sulfonylamino}-butyric acid] was tested. Which IC50 (MMP-12) did it give?
Answer: 0.0019 µM

Question: And the IC50 (MMP-13; [1])?
Answer: 0.0008 µM

Question: And the IC50 (MMP-2)?
Answer: 0.116 µM

Question: `CC(C)[C@H](NS(=O)(=O)c1ccc(-c2ccc(NC(=O)c3nc4ccccc4s3)cc2)cc1)C(=O)O` [Example 151, L-2-{4′-[(Benzothiazole-2-carbonyl)-amino]-biphenyl-4-sulfonylamino}-3-methyl-butyric acid] was tested. Which IC50 (MMP-14; [2]) did it give?
Answer: 35 µM

Question: What about the IC50 (MMP-12) of the same compound?
Answer: 0.011 µM

Question: And the IC50 (MMP-13; [1])?
Answer: 0.0004 µM

Question: What about the IC50 (MMP-1) of the same compound?
Answer: 70 µM

Question: `Cc1c(C(=O)Nc2ccc(-c3ccc(S(=O)(=O)N[C@H](C(=O)O)C(C)C)cc3)cc2)oc2cccc(Oc3ccccc3)c12` [Example 155, L-3-Methyl-2-{4′-[(3-methyl-4-phenoxy-benzofuran-2-carbonyl)-amino]-biphenyl-4-sulfonylamino}-butyric acid] was tested. Which IC50 (MMP-14; [2]) did it give?
Answer: 8 µM

Question: What about the IC50 (MMP-12) of the same compound?
Answer: 0.508 µM

Question: And the IC50 (MMP-13; MMP-13 IC50, recombinant human catalytic domain of MMP-13)?
Answer: 0.019 µM

Question: And the IC50 (MMP-2)?
Answer: 5 µM

Question: What about the IC50 (MMP-1) of the same compound?
Answer: 25 µM

Question: What does the source list for `CC(C)[C@H](NS(=O)(=O)c1ccc(-c2ccc(NC(=O)c3cc4c(-c5ccccc5)nn(C)c4s3)cc2)cc1)C(=O)O` [Example 167, (S)-3-Methyl-2-{4′-[(1-methyl-3-phenyl-1H-thieno[2,3-c]pyrazole-5-carbonyl)-amino]-biphenyl-4-sulfonylamino}-butyric acid]?
Answer: IC50 (MMP-14; [2]): 11 µM; IC50 (MMP-12): 0.097 µM; IC50 (MMP-13; [1]): 0.012 µM; IC50 (MMP-2): 9.3 µM; IC50 (MMP-1): 90 µM

Reference: patent US7420001B2 (Wyeth, priority 2003, dated 2008)
